Where two headings read alike, the source gives them in different places.
Key:
[1] = Mouse pharmacokinetics; type: in vivo, BALB/c mice; details: for AUC(0-inf): read-out: Plasma AUCinf; for AUC(0-t): read-out: Plasma AUClast
Procedure: Temperature and humidity were maintained at 22 ± 3 °C and 40-70 %, respectively and illumination was controlled to give a sequence of 12 hr light / dark cycle. The temperature and humidity were recorded by auto-controlled data logger system. All the animals were acclimatized to the experimental conditions for at least three days prior to dosing. All the animals were provided laboratory rodent diet (Vetcare India Pvt. Ltd, Bengaluru) except for overnight before treatment and 2 hr post dose. Reverse osmosis water treated with ultraviolet light was provided ad libitum. Blood samples were collected at 0, 0.05, 0.16, 0.5, 1, 2, 4, 8 & 24 hr for IV and for PO at 0, 0.25, 0.5, 1, 2, 4, 6, 8 and 24 hr post dosing. Each mouse was assigned to one of 3 subgroups and sampled at 3 timepoints. Animals were euthanized by using excess CO2 asphyxiation. The study was conducted at Sai Life Sciences Limited, Pune, India, in accordance with the guidelines of the Institutional Animal Ethics Committee (IAEC) and in accordance with the requirement of Committee for the Purpose of Control and Supervision of Experiments on Animals (CPCSEA), India. Prior approval was obtained before initiation of the study (IAEC Protocol No. IAEC/PRT/012-10; IAEC-CPCSEA).
Plasma was harvested from the blood samples harvested in K2EDTA containing tubes by centrifugation at 4000 rpm for 10 min at 4 ± 2 °C and stored below -70 °C until bioanalysis. Brain tissue was homogenized with phosphate buffer saline (pH 7.4). Total homogenate volume was thrice the tissue weight. All samples were processed for analysis by precipitation using Imipramine as internal standard and analyzed with partially validated LC-MS/MS method. Pharmacokinetic parameters were calculated using the non-compartmental analysis tool of WinNonlin® Enterprise software (Pharsight Corp., USA; version 5.2).
Compound levels from 3 samples per timepoint (for a given dose and route of administration), were used to calculated pharmacokinetic parameters using the non-compartmental analysis tool of WinNonlin® Enterprise software (Pharsight Corp., USA; version 5.2).

[2] = target: PDE2A1 (h) (Homo sapiens, UniProt O00408); experiment: CEREP Diversity Panel; type: biochemical
Procedure: (§1) […]. MAO-A inhibition at 10 μM was 37%, in line with internal data.

[3] = target: T1, PKCa (h) (Homo sapiens, UniProt P17252); experiment: CEREP Diversity Panel; type: biochemical
T1 construct: purchased CEREP (Eurofins Cerep)
Procedure: as §1

[4] = target: T2, PNMT (phenylethanolamine N-methyl transferase) (Bos taurus, UniProt P10938); experiment: CEREP Diversity Panel; type: biochemical
T2 construct: purchased CEREP (Eurofins Cerep)
T2 sequence (P10938 whole entry): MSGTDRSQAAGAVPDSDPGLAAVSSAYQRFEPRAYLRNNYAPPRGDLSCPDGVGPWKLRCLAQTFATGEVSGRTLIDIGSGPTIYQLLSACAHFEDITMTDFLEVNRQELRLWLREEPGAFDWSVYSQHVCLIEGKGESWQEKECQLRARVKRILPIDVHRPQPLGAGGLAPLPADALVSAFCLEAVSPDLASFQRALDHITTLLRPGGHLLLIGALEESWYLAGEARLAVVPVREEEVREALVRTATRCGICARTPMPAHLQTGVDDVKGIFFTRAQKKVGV
Procedure: as §1

[5] = target: T3, CENP-E (h) (Homo sapiens, UniProt Q02224); experiment: CEREP Diversity Panel; type: biochemical
T3 construct: purchased CEREP (Eurofins Cerep)
Procedure: as §1

[6] = target: T4, 5-lipoxygenase (h) (Homo sapiens, UniProt P09917); experiment: CEREP Diversity Panel; type: biochemical
T4 construct: purchased CEREP (Eurofins Cerep)
Procedure: as §1

[7] = target: T5, acetylcholinesterase (h) (Homo sapiens, UniProt P22303); experiment: CEREP Diversity Panel; type: biochemical
T5 construct: purchased CEREP (Eurofins Cerep)
T5 sequence (P22303 32-614): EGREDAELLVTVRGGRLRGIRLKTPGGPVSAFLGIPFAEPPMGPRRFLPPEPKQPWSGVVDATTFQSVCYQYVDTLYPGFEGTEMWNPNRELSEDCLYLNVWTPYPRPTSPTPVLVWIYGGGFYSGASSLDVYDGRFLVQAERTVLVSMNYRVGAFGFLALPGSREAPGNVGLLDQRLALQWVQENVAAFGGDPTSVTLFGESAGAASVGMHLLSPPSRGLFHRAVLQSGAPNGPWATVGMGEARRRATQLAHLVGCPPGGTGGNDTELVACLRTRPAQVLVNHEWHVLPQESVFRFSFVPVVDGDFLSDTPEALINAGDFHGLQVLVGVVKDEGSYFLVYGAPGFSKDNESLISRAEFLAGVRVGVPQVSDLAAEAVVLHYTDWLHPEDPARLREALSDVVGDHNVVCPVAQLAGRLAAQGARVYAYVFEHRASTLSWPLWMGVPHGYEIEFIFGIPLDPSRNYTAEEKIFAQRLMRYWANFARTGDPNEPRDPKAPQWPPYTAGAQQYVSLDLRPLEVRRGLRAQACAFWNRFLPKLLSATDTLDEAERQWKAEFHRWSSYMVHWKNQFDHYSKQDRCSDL
Procedure: as §1

[8] = target: T6, PDE3A (h) (Homo sapiens, UniProt Q14432); experiment: CEREP Diversity Panel; type: biochemical
T6 construct: purchased CEREP (Eurofins Cerep)
T6 sequence (Q14432 whole entry): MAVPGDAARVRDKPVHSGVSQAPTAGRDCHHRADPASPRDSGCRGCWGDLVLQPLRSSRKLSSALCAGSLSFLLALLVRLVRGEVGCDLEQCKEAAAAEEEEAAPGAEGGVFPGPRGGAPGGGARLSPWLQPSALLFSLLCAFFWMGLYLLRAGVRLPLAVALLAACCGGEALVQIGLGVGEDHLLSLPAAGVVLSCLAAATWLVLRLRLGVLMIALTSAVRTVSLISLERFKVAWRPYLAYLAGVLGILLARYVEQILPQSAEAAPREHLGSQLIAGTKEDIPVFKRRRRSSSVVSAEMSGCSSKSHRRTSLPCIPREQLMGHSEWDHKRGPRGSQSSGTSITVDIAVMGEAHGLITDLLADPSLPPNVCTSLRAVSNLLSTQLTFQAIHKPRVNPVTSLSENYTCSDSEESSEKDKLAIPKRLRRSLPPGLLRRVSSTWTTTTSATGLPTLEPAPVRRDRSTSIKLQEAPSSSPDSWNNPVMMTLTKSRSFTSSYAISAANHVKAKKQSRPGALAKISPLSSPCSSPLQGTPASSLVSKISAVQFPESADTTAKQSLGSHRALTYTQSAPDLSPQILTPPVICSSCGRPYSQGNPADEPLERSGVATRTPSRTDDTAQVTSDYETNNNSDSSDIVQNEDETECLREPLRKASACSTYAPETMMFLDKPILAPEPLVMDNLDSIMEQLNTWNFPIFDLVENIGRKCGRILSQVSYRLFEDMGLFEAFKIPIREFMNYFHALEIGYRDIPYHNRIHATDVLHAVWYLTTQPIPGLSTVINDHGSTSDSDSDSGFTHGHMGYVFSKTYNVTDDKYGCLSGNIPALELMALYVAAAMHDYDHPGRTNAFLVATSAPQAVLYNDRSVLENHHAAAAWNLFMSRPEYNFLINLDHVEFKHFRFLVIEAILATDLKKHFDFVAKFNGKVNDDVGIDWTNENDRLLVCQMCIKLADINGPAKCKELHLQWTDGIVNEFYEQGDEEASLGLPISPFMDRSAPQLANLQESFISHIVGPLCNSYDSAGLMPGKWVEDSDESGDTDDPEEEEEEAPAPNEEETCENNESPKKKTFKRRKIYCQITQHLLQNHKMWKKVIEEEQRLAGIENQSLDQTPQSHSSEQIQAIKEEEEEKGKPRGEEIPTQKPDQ
Procedure: as §1

[9] = target: T7, phosphatase 1B (h) (PTP1B) (Homo sapiens, UniProt P18031); experiment: CEREP Diversity Panel; type: biochemical
T7 construct: purchased CEREP (Eurofins Cerep)
Procedure: as §1

[10] = target: T8, tyrosine hydroxylase (Rattus norvegicus, UniProt P04177); experiment: CEREP Diversity Panel; type: biochemical
T8 construct: purchased CEREP (Eurofins Cerep)
Procedure: as §1

[11] = target: T9, Eg5 (h) (Homo sapiens, UniProt P52732); experiment: CEREP Diversity Panel; type: biochemical
T9 construct: purchased CEREP (Eurofins Cerep)
T9 sequence (P52732 whole entry): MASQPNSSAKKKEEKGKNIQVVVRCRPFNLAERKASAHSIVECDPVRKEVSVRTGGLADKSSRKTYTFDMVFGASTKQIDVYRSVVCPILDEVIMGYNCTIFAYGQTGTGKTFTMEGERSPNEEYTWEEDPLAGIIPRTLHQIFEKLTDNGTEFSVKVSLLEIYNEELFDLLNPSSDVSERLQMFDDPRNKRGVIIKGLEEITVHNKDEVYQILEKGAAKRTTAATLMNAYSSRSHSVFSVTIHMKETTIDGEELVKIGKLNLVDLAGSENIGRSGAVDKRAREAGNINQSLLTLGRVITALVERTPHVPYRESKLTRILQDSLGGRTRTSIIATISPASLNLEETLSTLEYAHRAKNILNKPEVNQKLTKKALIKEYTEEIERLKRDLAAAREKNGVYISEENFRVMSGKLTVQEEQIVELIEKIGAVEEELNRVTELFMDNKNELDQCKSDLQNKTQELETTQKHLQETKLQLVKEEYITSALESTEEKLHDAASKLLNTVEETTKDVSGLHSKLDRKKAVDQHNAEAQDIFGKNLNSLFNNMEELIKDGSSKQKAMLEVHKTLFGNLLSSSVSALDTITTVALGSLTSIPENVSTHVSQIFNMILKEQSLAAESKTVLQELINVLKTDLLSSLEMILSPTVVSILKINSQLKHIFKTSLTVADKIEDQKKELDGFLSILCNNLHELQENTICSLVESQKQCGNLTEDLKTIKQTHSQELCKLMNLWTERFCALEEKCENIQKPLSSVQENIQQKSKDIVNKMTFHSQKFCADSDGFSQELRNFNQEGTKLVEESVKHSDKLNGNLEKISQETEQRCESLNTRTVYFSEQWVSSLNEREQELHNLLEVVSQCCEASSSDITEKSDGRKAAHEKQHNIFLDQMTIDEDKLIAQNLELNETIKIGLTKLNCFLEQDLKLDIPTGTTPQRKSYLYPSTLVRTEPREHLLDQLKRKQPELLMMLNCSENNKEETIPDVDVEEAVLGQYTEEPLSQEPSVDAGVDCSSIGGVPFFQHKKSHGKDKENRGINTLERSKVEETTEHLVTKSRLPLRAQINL
Procedure: as §1

[12] = target: T10, GABA transaminase (Rattus norvegicus, UniProt P50554); experiment: CEREP Diversity Panel; type: biochemical
T10 construct: purchased CEREP (Eurofins Cerep)
T10 sequence (P50554 28-500): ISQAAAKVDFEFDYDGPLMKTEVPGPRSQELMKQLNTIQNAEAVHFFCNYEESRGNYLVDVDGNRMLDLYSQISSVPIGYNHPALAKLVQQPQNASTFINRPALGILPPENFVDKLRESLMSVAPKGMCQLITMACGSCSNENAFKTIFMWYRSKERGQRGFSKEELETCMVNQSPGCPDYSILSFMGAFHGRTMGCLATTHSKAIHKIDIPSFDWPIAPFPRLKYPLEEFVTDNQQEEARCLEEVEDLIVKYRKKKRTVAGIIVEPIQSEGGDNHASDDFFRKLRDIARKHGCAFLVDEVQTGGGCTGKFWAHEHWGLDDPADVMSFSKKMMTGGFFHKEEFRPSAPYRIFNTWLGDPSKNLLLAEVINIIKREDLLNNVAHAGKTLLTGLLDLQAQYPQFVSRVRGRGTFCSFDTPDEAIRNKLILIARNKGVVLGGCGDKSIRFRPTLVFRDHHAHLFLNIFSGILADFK
Procedure: as §1

[13] = target: T11, MAO- A (h) (Homo sapiens, UniProt P21397); experiment: CEREP Diversity Panel; type: biochemical
T11 construct: purchased CEREP (Eurofins Cerep)
T11 sequence (P21397 whole entry): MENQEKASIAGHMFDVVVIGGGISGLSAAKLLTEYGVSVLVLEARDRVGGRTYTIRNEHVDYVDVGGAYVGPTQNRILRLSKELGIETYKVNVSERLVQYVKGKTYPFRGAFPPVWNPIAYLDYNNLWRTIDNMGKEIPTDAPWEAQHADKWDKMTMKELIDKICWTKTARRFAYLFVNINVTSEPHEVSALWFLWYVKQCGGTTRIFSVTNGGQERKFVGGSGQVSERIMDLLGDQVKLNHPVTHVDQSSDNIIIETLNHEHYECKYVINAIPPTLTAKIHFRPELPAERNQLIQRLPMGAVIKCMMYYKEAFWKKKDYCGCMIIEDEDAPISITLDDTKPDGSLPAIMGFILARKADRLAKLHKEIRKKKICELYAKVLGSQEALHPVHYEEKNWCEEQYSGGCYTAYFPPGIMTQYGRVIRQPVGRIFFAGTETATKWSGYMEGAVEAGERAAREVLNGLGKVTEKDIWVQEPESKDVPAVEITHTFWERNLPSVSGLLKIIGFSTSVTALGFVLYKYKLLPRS
Procedure: as §1

[14] = target: T12, phosphatase CDC25A (h) (Homo sapiens, UniProt P30304); experiment: CEREP Diversity Panel; type: biochemical
T12 construct: purchased CEREP (Eurofins Cerep)
Procedure: as §1

[15] = test system: KATP channel (antagonist radioligand); experiment: CEREP Diversity Panel; type: binding; set-up: dose or concentration left out as unconfirmed
Procedure: as §1

[16] = test system: GABA transporter (antagonist radioligand); experiment: CEREP Diversity Panel; type: binding; set-up: dose or concentration left out as unconfirmed
Procedure: as §1

[17] = test system: Y (non-selective) (agonist radioligand); experiment: CEREP Diversity Panel; type: binding; set-up: dose or concentration left out as unconfirmed
Procedure: as §1

[18] = test system: I1 (agonist radioligand); experiment: CEREP Diversity Panel; type: binding; set-up: dose or concentration left out as unconfirmed
Procedure: as §1

[19] = test system: SKCa channel (antagonist radioligand); experiment: CEREP Diversity Panel; type: binding; set-up: dose or concentration left out as unconfirmed
Procedure: as §1

[20] = test system: alpha 2 (non-selective) (antagonist radioligand); experiment: CEREP Diversity Panel; type: binding; set-up: dose or concentration left out as unconfirmed
Procedure: as §1

[21] = test system: opioid (non-selective) (antagonist radioligand); experiment: CEREP Diversity Panel; type: binding; set-up: dose or concentration left out as unconfirmed
Procedure: as §1

[22] = test system: AMPA (agonist radioligand); experiment: CEREP Diversity Panel; type: binding; set-up: dose or concentration left out as unconfirmed
Procedure: as §1

[23] = test system: P2Y (agonist radioligand); experiment: CEREP Diversity Panel; type: binding; set-up: dose or concentration left out as unconfirmed
Procedure: as §1

[24] = test system: alpha 1 (non-selective) (antagonist radioligand); experiment: CEREP Diversity Panel; type: binding; set-up: dose or concentration left out as unconfirmed
Procedure: as §1

[25] = test system: PCP (antagonist radioligand); experiment: CEREP Diversity Panel; type: binding; set-up: dose or concentration left out as unconfirmed
Procedure: as §1

[26] = test system: s (non-selective) (agonist radioligand); experiment: CEREP Diversity Panel; type: binding; set-up: dose or concentration left out as unconfirmed
Procedure: as §1

[27] = test system: BZD (central) (agonist radioligand); experiment: CEREP Diversity Panel; type: binding; set-up: dose or concentration left out as unconfirmed
Procedure: as §1

[28] = male, mouse, plasma, BALB/c mice, intravenous 2 mg/kg
[29] = male, mouse, plasma, BALB/c mice, oral 10 mg/kg

Compound: Nc1nnc(CN[C@@H]2C[C@H]2c2ccc(OCc3ccccc3)cc2)o1 [ORY-2001, vafidemstat]
- Brain Cmax ([1]; BALB/c mice, oral 10 mg/kg): 5804 ng/g
- Fpo ([1]; BALB/c mice, oral 10 mg/kg): 75%
- AUC ([1]; male, mouse, plasma, po, Balb/c mice, p.o. 10 mg/kg, read-out: area-under-the-curve (AUC) (converted)): 17200 ng·h/mL
- clearance [1, 28]: 6.8 mL/min/kg
- half-life [1, 28]: 2.05 h
- AUC(0-inf) [1, 28]: 4880 ng·h/mL
- AUC(0-t) [1, 28]: 4570 ng·h/mL
- Vd ([1]; male, mouse, plasma, BALB/c mice, intravenous 2 mg/kg, read-out: Vss): 1.1 L/kg
- Cmax [1, 29]: 4160 ng/mL
- Tmax [1, 29]: 0.25 h
- half-life [1, 29]: 2.22 h
- AUC(0-inf) [1, 29]: 17200 ng·h/mL
- AUC(0-t) [1, 29]: 17200 ng·h/mL
- inhibition at 10 µM [2]: -2%
- inhibition at 10 µM [3]: 4%
- inhibition at 10 µM [4]: 1%
- inhibition at 10 µM [5]: 3%
- inhibition at 10 µM [6]: 3%
- inhibition at 10 µM [7]: -4%
- inhibition at 10 µM [8]: 1%
- inhibition at 10 µM [9]: 2%
- inhibition at 10 µM [10]: -12%
- inhibition at 10 µM [11]: -3%
- inhibition at 10 µM [12]: 8%
- inhibition at 10 µM ([13]; 10 μM, read-out: MAO-A inhibition): 37%
- inhibition at 10 µM ([13]; at 10 µM, read-out: % inhibition): 37%
- inhibition at 10 µM [14]: 5%
- % inhibition [15]: 3%
- % inhibition [16]: -3%
- % inhibition [17]: -28%
- % inhibition [18]: 26%
- % inhibition [19]: -11%
- % inhibition [20]: 3%
- % inhibition [21]: -2%
- % inhibition [22]: -2%
- % inhibition [23]: 5%
- % inhibition [24]: 0%
- % inhibition [25]: 1%
- % inhibition [26]: 9%
- % inhibition [27]: -21%
